Measurements taken from the supplement of paper PMC10307832.

Columns and labels:
Assay in all cases: relative viability (nuclei count vs DMSO), 5 days (fraction); higher = more cells survive
Bromopyruvate + OSI-027 = compound: C(C(=O)C(=O)O)Br [Bromopyruvate] + COc1cccc2cc(-c3nc([C@H]4CC[C@H](C(=O)O)CC4)n4ncnc(N)c34)[nH]c12 [OSI-027] (partner 0.5 µM)
Outline: (§1)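 Lung cancer cell lines were pin-tool dosed in 1536-well plates on the day after seeding, with either a lone drug or a fixed anchor-drug dose plus five library-drug doses (not always all listed) in √10 steps. Nuclei were counted on 4× images after 5 days. Relative viability is the ratio of treated-well to vehicle-well nuclei counts, with each value a median of duplicate plates.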

[1] = compound: C(C(=O)C(=O)O)Br [Bromopyruvate] + CS(=O)(=O)N1CCN(Cc2cc3nc(-c4cccc5[nH]ncc45)nc(N4CCOCC4)c3s2)CC1 [Pictilisib] (partner 1 µM)
Outline: as §1

[2] = compound: C(C(=O)C(=O)O)Br [Bromopyruvate] + C[C@]1(O)C[C@@H](c2nc(-c3ccc4ccc(-c5ccccc5)nc4c3)c3c(N)nccn32)C1 [Linsitinib] (partner 1 µM)
Outline: as §1

[3] = compound: C(C(=O)C(=O)O)Br [Bromopyruvate] + Cc1cc(Nc2cc(N3CCN(C)CC3)nc(Sc3ccc(NC(=O)C4CC4)cc3)n2)n[nH]1 [Tozasertib] (partner 0.1 µM)
Outline: as §1

Row | Cell Line | relative viability (Bromopyruvate + OSI-027; first compound 1 µM) | relative viability (Bromopyruvate + OSI-027; first compound 3.162 µM) | relative viability (Bromopyruvate + OSI-027; first compound 10 µM) | relative viability (Bromopyruvate + OSI-027; first compound 31.62 µM) | relative viability (Bromopyruvate + OSI-027; first compound 100 µM) | relative viability ([1]; first compound 1 µM) | relative viability ([1]; first compound 3.162 µM) | relative viability ([1]; first compound 10 µM) | relative viability ([1]; first compound 31.62 µM) | relative viability ([1]; first compound 100 µM) | relative viability ([2]; first compound 1 µM) | relative viability ([2]; first compound 3.162 µM) | relative viability ([2]; first compound 10 µM) | relative viability ([2]; first compound 31.62 µM) | relative viability ([2]; first compound 100 µM) | relative viability ([3]; first compound 1 µM) | relative viability ([3]; first compound 3.162 µM) | relative viability ([3]; first compound 10 µM) | relative viability ([3]; first compound 31.62 µM) | relative viability ([3]; first compound 100 µM)
1 | NCI-H2023 | 0.391 | 0.39 | 0.49 | 0.388 | 0.374 | 0.236 | 0.237 | 0.221 | 0.209 | 0.25 | 0.664 | 0.72 | 0.682 | 0.752 | 0.605 | 0.31 | 0.4 | 0.348 | 0.482 | 0.39
2 | NCI-H2085 | 0.794 | 0.931 | 0.798 | 0.726 | 0.797 | 0.429 | 0.426 | 0.463 | 0.437 | 0.498 | 0.984 | 1.04 | 0.864 | 0.876 | 0.639 | 0.821 | 0.917 | 0.84 | 0.558 | 0.311
3 | NCI-H2087 | 0.55 | 0.612 | 0.637 | 0.542 | 0.462 | 0.834 | 0.984 | 0.96 | 0.844 | 0.886 | 0.856 | 1.04 | 0.932 | 0.954 | 0.959 | 0.237 | 0.284 | 0.234 | 0.269 | 0.258
4 | NCI-H2126 | 0.756 | 0.707 | 0.65 | 0.668 | 0.824 | 0.531 | 0.511 | 0.456 | 0.562 | 0.509 | 0.718 | 0.693 | 0.697 | 0.701 | 0.753 | 0.881 | 0.858 | 0.825 | 0.879 | 0.783
5 | NCI-H2228 | 0.539 | 0.554 | 0.755 | 0.518 | 0.551 | 0.349 | 0.37 | 0.402 | 0.416 | 0.635 | 0.81 | 0.837 | 0.693 | 0.535 | 0.505 | 0.241 | 0.252 | 0.239 | 0.284 | 0.248
6 | NCI-H2347 | 0.453 | 0.401 | 0.379 | 0.357 | 0.375 | 0.899 | 0.478 | 0.737 | 0.541 | 0.677 | 0.995 | 0.989 | 1.21 | 0.756 | 1.08 | 0.69 | 0.534 | 0.715 | 0.479 | 0.609
7 | NCI-H2405 | 0.585 | 0.659 | 0.634 | 0.556 | 0.663 | 0.441 | 0.524 | 0.431 | 0.349 | 0.517 | 0.938 | 0.948 | 1.11 | 0.727 | 0.907 | 0.806 | 0.779 | 0.723 | 0.804 | 0.785
8 | NCI-H3122 | 0.914 | 1.13 | 1.27 | 0.964 | 1.06 | 0.553 | 0.664 | 0.879 | 0.554 | 0.567 | 1.02 | 1.02 | 1.03 | 0.987 | 0.941 | 0.381 | 0.378 | 0.468 | 0.417 | 0.382
9 | PC-3 [JPC-3] | 0.814 | 0.77 | 0.709 | 0.783 | 0.735 | 0.775 | 0.724 | 0.731 | 0.694 | 0.733 | 1.02 | 0.975 | 0.943 | 0.914 | 1.01 | 0.906 | 0.868 | 0.937 | 0.841 | 0.892
10 | PC-14 | 0.788 | 0.837 | 1.37 | 0.825 | 0.841 | 0.714 | 0.692 | 0.898 | 0.808 | 0.611 | 1.03 | 1.01 | 0.938 | 0.944 | 1.04 | 0.598 | 0.566 | 0.633 | 0.633 | 0.628
11 | RERF-LC-KJ | 0.614 | 0.607 | 0.6 | 0.516 | 0.54 | 0.537 | 0.563 | 0.644 | 0.617 | 0.495 | 0.885 | 0.935 | 0.952 | 0.906 | 0.933 | 0.508 | 0.491 | 0.433 | 0.517 | 0.413
12 | SK-LU-1 | 0.378 | 0.316 | 0.303 | 0.317 | 0.305 | 0.545 | 0.65 | 0.616 | 0.551 | 0.53 | 1.02 | 1.09 | 1.12 | 0.964 | 1.09 | 0.328 | 0.349 | 0.333 | 0.382 | 0.266
13 | SK-MES-1 | 0.654 | 0.552 | 0.667 | 0.603 | 0.68 | 0.356 | 0.32 | 0.427 | 0.373 | 0.321 | 1.07 | 1.05 | 1.08 | 0.941 | 1.06 | 0.877 | 0.926 | 0.948 | 0.98 | 0.9
14 | SW 1573 | 0.751 | 0.674 | 0.73 | 0.475 | 0.0547 | 0.463 | 0.438 | 0.46 | 0.521 | 0.303 | 0.839 | 0.842 | 0.794 | 0.776 | 0.651 | 0.191 | 0.184 | 0.159 | 0.171 | 0.0582
